Test results as given in patent US10004701B2, “Methods and compositions for treating infection” (UNIVERSITY OF ROCHESTER, priority 2012, dated 2018).
Where a name gives a salt, the structure may show the parent alone. Read-outs that look alike come from different tables or passages of the source. Where a SMILES comes first, the peptide text is derived from it. Bridges are numbered along the chain shown (N, C = ends). [ ]: non-standard residue; d: D form. The star is where a group is joined. Ileψ(thiazoline)Cys = CC[C@H](C)[C@H](N)C1=N[C@H](C(=O)*)CS1; dOrn = NCCC[C@@H](N)C(=O)O

How the values were obtained:
Assay in all cases: AK assay 384-well format, Prestwick library screening
[1] = system: S. aureus strain USA300-0114; assay type: cell-based, Staphylococcus aureus; settings: 50 μM final drug concentration; for fold induction at 50 µM: Staphylococcus aureus, USA300, 3 h
K. pneumoniae = assay type: cell-based, Klebsiella pneumoniae; settings: 50 μM final drug concentration; for fold induction at 50 µM: Klebsiella pneumoniae, 3 h
P. aeruginosa = assay type: cell-based, Pseudomonas aeruginosa; settings: 50 μM final drug concentration; for fold induction at 50 µM: Pseudomonas aeruginosa, 3 h
E. cloacae = assay type: cell-based, Enterobacter cloacae; settings: 50 μM final drug concentration; for fold induction at 50 µM: Enterobacter cloacae, 3 h
E. coli = assay type: cell-based, Escherichia coli; settings: 50 μM final drug concentration; for fold induction at 50 µM: Escherichia coli, 3 h
E. faecium = assay type: cell-based, Enterococcus faecium; settings: 50 μM final drug concentration; for fold induction at 50 µM: Enterococcus faecium, 3 h
[2] = system: A. baumannii strain 98-37-09; assay type: cell-based, Acinetobacter baumannii; settings: 50 μM final drug concentration; for fold induction at 50 µM: Acinetobacter baumannii, 983709, 3 h
[3] = planktonic, cutoff for positive-scoring molecules 3-fold increase, read-out: AK-based Prestwick Library Screening Results, S. aureus (fold increase in extracellular AK activity)
[4] = planktonic, cutoff for positive-scoring molecules 3-fold increase, read-out: AK-based Prestwick Library Screening Results, K. pneumoniae (fold increase in extracellular AK activity)
[5] = planktonic, cutoff for positive-scoring molecules 3-fold increase, read-out: AK-based Prestwick Library Screening Results, P. aeruginosa (fold increase in extracellular AK activity)
[6] = planktonic, cutoff for positive-scoring molecules 3-fold increase, read-out: AK-based Prestwick Library Screening Results, E. cloacae (fold increase in extracellular AK activity)
[7] = planktonic, cutoff for positive-scoring molecules 3-fold increase, read-out: AK-based Prestwick Library Screening Results, E. coli (fold increase in extracellular AK activity)
[8] = planktonic, cutoff for positive-scoring molecules 3-fold increase, read-out: AK-based Prestwick Library Screening Results, E. faecium (fold increase in extracellular AK activity)
[9] = planktonic, cutoff for positive-scoring molecules 3-fold increase, read-out: AK-based Prestwick Library Screening Results, A. baumannii (fold increase in extracellular AK activity)
[10] = planktonic S. aureus, cutoff for positive-scoring molecules 3-fold increase, read-out: AK-based Prestwick Library Screening Results, S. aureus (increase in extracellular AK activity)
[11] = planktonic K. pneumoniae, cutoff for positive-scoring molecules 3-fold increase, read-out: AK-based Prestwick Library Screening Results, K. pneumoniae (increase in extracellular AK activity)
[12] = planktonic P. aeruginosa, cutoff for positive-scoring molecules 3-fold increase, read-out: AK-based Prestwick Library Screening Results, P. aeruginosa (increase in extracellular AK activity)
[13] = planktonic E. cloacae, cutoff for positive-scoring molecules 3-fold increase, read-out: AK-based Prestwick Library Screening Results, E. cloacae (increase in extracellular AK activity)
[14] = planktonic E. coli, cutoff for positive-scoring molecules 3-fold increase, read-out: AK-based Prestwick Library Screening Results, E. coli (increase in extracellular AK activity)
[15] = planktonic E. faecium, cutoff for positive-scoring molecules 3-fold increase, read-out: AK-based Prestwick Library Screening Results, E. faecium (increase in extracellular AK activity)
[16] = planktonic A. baumannii, cutoff for positive-scoring molecules 3-fold increase, read-out: AK-based Prestwick Library Screening Results, A. baumannii (increase in extracellular AK activity)

## Cc1c(C)c2c(c(C)c1O)CC[C@@](C)(CCC[C@H](C)CCC[C@H](C)CCCC(C)C)O2 [Tocopherol (R,S)]
[1]; planktonic S. aureus, 384-well, cutoff for positive-scoring molecules 3-fold increase
  AK-based Prestwick Library Screening Results: S. aureus (increase in extracellular AK activity): 0.4
K. pneumoniae; planktonic K. pneumoniae, 384-well, cutoff for positive-scoring molecules 3-fold increase
  AK-based Prestwick Library Screening Results: K. pneumoniae (increase in extracellular AK activity): 0.4
P. aeruginosa; planktonic P. aeruginosa, 384-well, cutoff for positive-scoring molecules 3-fold increase
  AK-based Prestwick Library Screening Results: P. aeruginosa (increase in extracellular AK activity): 0.4
E. cloacae; planktonic E. cloacae, 384-well, cutoff for positive-scoring molecules 3-fold increase
  AK-based Prestwick Library Screening Results: E. cloacae (increase in extracellular AK activity): 0.4
E. coli; planktonic E. coli, 384-well, cutoff for positive-scoring molecules 3-fold increase
  AK-based Prestwick Library Screening Results: E. coli (increase in extracellular AK activity): 0.6
E. faecium; planktonic E. faecium, 384-well, cutoff for positive-scoring molecules 3-fold increase
  AK-based Prestwick Library Screening Results: E. faecium (increase in extracellular AK activity): 0.9
[2]; planktonic A. baumannii, 384-well, cutoff for positive-scoring molecules 3-fold increase
  AK-based Prestwick Library Screening Results: A. baumannii (increase in extracellular AK activity): 0.4

## NC[C@H]1O[C@H](O[C@H]2[C@H](O[C@@H]3O[C@H](CO)[C@@H](O)[C@H]3O)[C@@H](O)[C@H](N)C[C@@H]2N)[C@H](N)[C@@H](O)[C@@H]1O [Ribostamycin sulfate salt]
[1]; [3]
  fold induction at 50 µM: 0.8
K. pneumoniae; [4]
  fold induction at 50 µM: 0.7
P. aeruginosa; [5]
  fold induction at 50 µM: 0.8
E. cloacae; [6]
  fold induction at 50 µM: 1.2
E. coli; [7]
  fold induction at 50 µM: 0.9
E. faecium; [8]
  fold induction at 50 µM: 0.9
[2]; [9]
  fold induction at 50 µM: 0.8

## COc1cc(/C=C/C(=O)N2CCC=CC2=O)cc(OC)c1OC [Piperlongumine]
[1]; planktonic, […]
  AK-based Prestwick Library Screening Results, S. aureus (fold increase in extracellular AK activity): 1.0
K. pneumoniae; planktonic, […]
  AK-based Prestwick Library Screening Results, K. pneumoniae (fold increase in extracellular AK activity): 1.0
P. aeruginosa; planktonic, […]
  AK-based Prestwick Library Screening Results, P. aeruginosa (fold increase in extracellular AK activity): 1.1
E. cloacae; planktonic, […]
  AK-based Prestwick Library Screening Results, E. cloacae (fold increase in extracellular AK activity): 1.6
E. coli; planktonic, […]
  AK-based Prestwick Library Screening Results, E. coli (fold increase in extracellular AK activity): 1.2
E. faecium; planktonic, […]
  AK-based Prestwick Library Screening Results, E. faecium (fold increase in extracellular AK activity): 1.0
[2]; planktonic, […]
  AK-based Prestwick Library Screening Results, A. baumannii (fold increase in extracellular AK activity): 1.0

## CN(C)/N=N/c1[nH]cnc1C(N)=O [Dacarbazine]
[1]; [10]
  fold induction at 50 µM: 0.7
K. pneumoniae; [11]
  fold induction at 50 µM: 3.8
P. aeruginosa; [12]
  fold induction at 50 µM: 0.9
E. cloacae; [13]
  fold induction at 50 µM: 0.8
E. coli; [14]
  fold induction at 50 µM: 2
E. faecium; [15]
  fold induction at 50 µM: 1.1
[2]; [16]
  fold induction at 50 µM: 1.6

## CC(=O)Nc1cc2ccccc2oc1=O [Compound 3-Acetamidocoumarin, 3-Acetamidocoumarin]
[1]; cutoff for positive-scoring molecules 3-fold increase, read-out: AK-based Prestwick Library Screening Results, S. aureus (fold increase in extracellular AK activity)
  fold induction at 50 µM: 0.4
K. pneumoniae; cutoff for positive-scoring molecules 3-fold increase, read-out: AK-based Prestwick Library Screening Results, K. pneumoniae (fold increase in extracellular AK activity)
  fold induction at 50 µM: 0.4
P. aeruginosa; cutoff for positive-scoring molecules 3-fold increase, read-out: AK-based Prestwick Library Screening Results, P. aeruginosa (fold increase in extracellular AK activity)
  fold induction at 50 µM: 0.4
E. cloacae; cutoff for positive-scoring molecules 3-fold increase, read-out: AK-based Prestwick Library Screening Results, E. cloacae (fold increase in extracellular AK activity)
  fold induction at 50 µM: 0.4
E. coli; cutoff for positive-scoring molecules 3-fold increase, read-out: AK-based Prestwick Library Screening Results, E. coli (fold increase in extracellular AK activity)
  fold induction at 50 µM: 0.5
E. faecium; cutoff for positive-scoring molecules 3-fold increase, read-out: AK-based Prestwick Library Screening Results, E. faecium (fold increase in extracellular AK activity)
  fold induction at 50 µM: 0.8
[2]; cutoff for positive-scoring molecules 3-fold increase, read-out: AK-based Prestwick Library Screening Results, A. baumannii (fold increase in extracellular AK activity)
  fold induction at 50 µM: 0.4

## CC1=C(/C=C/C(C)=C/C=C/C(C)=C\C(=O)O)C(C)(C)CCC1 [Isotretinoin]
[1]; 384-well format, cutoff for positive-scoring molecules 3-fold increase, read-out: AK-based Prestwick Library Screening Results, S. aureus (increase in extracellular AK activity)
  fold induction at 50 µM: 0.6
K. pneumoniae; 384-well format, cutoff for positive-scoring molecules 3-fold increase, read-out: AK-based Prestwick Library Screening Results, K. pneumoniae (increase in extracellular AK activity)
  fold induction at 50 µM: 0.6
P. aeruginosa; 384-well format, cutoff for positive-scoring molecules 3-fold increase, read-out: AK-based Prestwick Library Screening Results, P. aeruginosa (increase in extracellular AK activity)
  fold induction at 50 µM: 0.8
E. cloacae; 384-well format, cutoff for positive-scoring molecules 3-fold increase, read-out: AK-based Prestwick Library Screening Results, E. cloacae (increase in extracellular AK activity)
  fold induction at 50 µM: 0.9
E. coli; 384-well format, cutoff for positive-scoring molecules 3-fold increase, read-out: AK-based Prestwick Library Screening Results, E. coli (increase in extracellular AK activity)
  fold induction at 50 µM: 0.7
E. faecium; 384-well format, cutoff for positive-scoring molecules 3-fold increase, read-out: AK-based Prestwick Library Screening Results, E. faecium (increase in extracellular AK activity)
  fold induction at 50 µM: 1
[2]; 384-well format, cutoff for positive-scoring molecules 3-fold increase, read-out: AK-based Prestwick Library Screening Results, A. baumannii (increase in extracellular AK activity)
  fold induction at 50 µM: 0.7

## CC(=O)OCC(=O)NCCCOc1cccc(CN2CCCCC2)c1 [Roxatidine Acetate HCl]
[1]; [10]
  fold induction at 50 µM: 0.6
K. pneumoniae; [11]
  fold induction at 50 µM: 0.7
P. aeruginosa; [12]
  fold induction at 50 µM: 0.7
E. cloacae; [13]
  fold induction at 50 µM: 0.9
E. coli; [14]
  fold induction at 50 µM: 0.8
E. faecium; [15]
  fold induction at 50 µM: 1
[2]; [16]
  fold induction at 50 µM: 0.8

## CC[C@H](C)[C@H](N)C1=N[C@H](C(=O)N[C@@H](CC(C)C)C(=O)N[C@H](CCC(=O)O)C(=O)N[C@H](C(=O)N[C@H]2CCCCNC(=O)[C@H](CC(N)=O)NC(=O)[C@@H](CC(=O)O)NC(=O)[C@H](Cc3cnc[nH]3)NC(=O)[C@@H](Cc3ccccc3)NC(=O)[C@H]([C@@H](C)CC)NC(=O)[C@@H](CCCN)NC2=O)[C@@H](C)CC)CS1 [Bacitracin] ({Ileψ(thiazoline)Cys}-L[dE]IK[dOrn]I[dF]H[dD]N; lactam 4-C)
[1]; [3]
  fold induction at 50 µM: 0.4
K. pneumoniae; [4]
  fold induction at 50 µM: 0.8
P. aeruginosa; [5]
  fold induction at 50 µM: 0.8
E. cloacae; [6]
  fold induction at 50 µM: 1.2
E. coli; [7]
  fold induction at 50 µM: 1
E. faecium; [8]
  fold induction at 50 µM: 1.3
[2]; [9]
  fold induction at 50 µM: 1.1

## O=C(CCCN1CC=C(n2c(=O)[nH]c3ccccc32)CC1)c1ccc(F)cc1 [Droperidol]
[1]; [10]
  fold induction at 50 µM: 0.9
K. pneumoniae; [11]
  fold induction at 50 µM: 0.7
P. aeruginosa; [12]
  fold induction at 50 µM: 0.7
E. cloacae; [13]
  fold induction at 50 µM: 1.2
E. coli; [14]
  fold induction at 50 µM: 0.9
E. faecium; [15]
  fold induction at 50 µM: 1
[2]; [16]
  fold induction at 50 µM: 1

## Cc1cc(C(C)(C)C)cc(C)c1CC1=NCCN1 [Xylometazoline hydrochloride]
[1]; planktonic S. aureus, 384-well, […], read-out: AK-based Prestwick Library Screening Results: S. aureus (increase in extracellular AK activity)
  fold induction at 50 µM: 1.2
K. pneumoniae; planktonic K. pneumoniae, 384-well, cutoff for positive-scoring molecules 3-fold increase, read-out: AK-based Prestwick Library Screening Results: K. pneumoniae (increase in extracellular AK activity)
  fold induction at 50 µM: 0.9
P. aeruginosa; planktonic P. aeruginosa, 384-well, […], read-out: AK-based Prestwick Library Screening Results: P. aeruginosa (increase in extracellular AK activity)
  fold induction at 50 µM: 1.2
E. cloacae; planktonic E. cloacae, 384-well, […], read-out: AK-based Prestwick Library Screening Results: E. cloacae (increase in extracellular AK activity)
  fold induction at 50 µM: 1.4
E. coli; planktonic E. coli, 384-well, […], read-out: AK-based Prestwick Library Screening Results: E. coli (increase in extracellular AK activity)
  fold induction at 50 µM: 1.2
E. faecium; planktonic E. faecium, 384-well, cutoff for positive-scoring molecules 3-fold increase, read-out: AK-based Prestwick Library Screening Results: E. faecium (increase in extracellular AK activity)
  fold induction at 50 µM: 1
[2]; planktonic A. baumannii, 384-well, […], read-out: AK-based Prestwick Library Screening Results: A. baumannii (increase in extracellular AK activity)
  fold induction at 50 µM: 1.3
